The values that follow come from PubChem BioAssay (NCI).

Some test systems named below: 786-0 renal; UACC-257 melanoma; HT29 colon; CAKI-1 renal; HCC-2998 colon; A549 NSCLC; NCI-H23 lung; IGROV1 ovarian; UACC-62 melanoma; MALME-3M melanoma; UO-31 renal; SW-620 colon; SF-268 CNS; HOP-92 NSCLC.
Experiment in all cases: DTP human tumour cell line panel, 48 h

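These data come from cells grown in 96-well plates and exposed to compound for 48 hours at five concentrations. TGI: concentration producing complete growth inhibition.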 Some results are limits rather than exact numbers.

What is called TGI is the concentration at which net growth stops. Higher therefore signals less potent growth arrest. `CC(=O)NNc1nc(C)c(C(=O)/C=C/c2ccc(Cl)c(Cl)c2)s1`: the TGI with 786-0 renal, in the assay with UACC-257 melanoma, in the assay on HT29 colon, in the assay with CAKI-1 renal, with HCC-2998 colon and with A549 NSCLC was over 100 µM throughout. In addition, the TGI in the assay on NCI-H23 lung, with IGROV1 ovarian, in the assay on UACC-62 melanoma, in the assay with MALME-3M melanoma, in the assay with UO-31 renal and in the assay on SW-620 colon was over 100 µM in each case. Further, the TGI in the assay on SF-268 CNS and in the assay on HOP-92 NSCLC was over 100 µM in each case.

With `O=C(O)CCN(CCCN(CCC(=O)O)CCC(=O)O)CCC(=O)O`, the TGI with 786-0 renal, with HT29 colon, with CAKI-1 renal, in the assay with HCC-2998 colon, in the assay on A549 NSCLC and in the assay with NCI-H23 lung was over 100 µM throughout. Besides, the TGI with IGROV1 ovarian, in the assay on UACC-62 melanoma, in the assay on MALME-3M melanoma, in the assay on SW-620 colon, in the assay with SF-268 CNS and with HOP-92 NSCLC was over 100 µM throughout.

On to `COc1ccccc1NC(=O)CC(=O)N1N=C(c2ccccc2)C(N=Nc2ccc(Cl)cc2)C1=O` (configuration not stated), for which the TGI was 37 µM in the assay on 786-0 renal; over 100 µM in the assay on UACC-257 melanoma; over 100 µM in the assay on HT29 colon; over 100 µM in the assay on CAKI-1 renal; over 100 µM with HCC-2998 colon; over 100 µM with A549 NSCLC. The TGI was over 100 µM in the assay with NCI-H23 lung; over 100 µM in the assay on IGROV1 ovarian; 89.7 µM in the assay with UACC-62 melanoma; 52.4 µM in the assay with UO-31 renal; over 100 µM with SW-620 colon; over 100 µM with SF-268 CNS.

`CC(C)OP(=O)(OC(C)C)C(=NCCN=C(NNc1ccccc1[N+](=O)[O-])P(=O)(OC(C)C)OC(C)C)NNc1ccccc1[N+](=O)[O-]`: the TGI in the assay on 786-0 renal is over 100 µM; in the assay on UACC-257 melanoma, 84.6 µM; with CAKI-1 renal, over 100 µM; in the assay with HCC-2998 colon, over 100 µM; in the assay with A549 NSCLC, over 100 µM; with NCI-H23 lung it was over 100 µM. Further, the TGI with IGROV1 ovarian was 82.7 µM; with UACC-62 melanoma it was 40.6 µM; with MALME-3M melanoma it was 54.5 µM; in the assay with UO-31 renal, 71.5 µM; in the assay with SW-620 colon it was over 100 µM; with SF-268 CNS, over 100 µM. Also, the TGI in the assay on HOP-92 NSCLC is over 100 µM.

For the compound `NC(N)=NS(=O)(=O)c1ccc(NC(=O)c2cccc3c(N)c4ccccc4nc23)cc1`, the TGI in the assay on 786-0 renal, in the assay with UACC-257 melanoma, in the assay with CAKI-1 renal, in the assay with HCC-2998 colon, in the assay with A549 NSCLC and with NCI-H23 lung was over 100 µM in each case. The TGI in the assay on IGROV1 ovarian, with UACC-62 melanoma, with MALME-3M melanoma, in the assay with UO-31 renal, in the assay on SW-620 colon and in the assay on SF-268 CNS was over 100 µM throughout.

Turning to `COC(=O)C(=O)C(/C(=N/N)C(=O)Nc1ccccc1C(N)=O)c1nc2ccc([N+](=O)[O-])cc2[nH]c1=O` (configuration not stated), the TGI with 786-0 renal, with UACC-257 melanoma, in the assay with HT29 colon, with CAKI-1 renal, in the assay on HCC-2998 colon and with A549 NSCLC was over 100 µM throughout. In addition, the total growth inhibition concentration (TGI) with NCI-H23 lung, in the assay with IGROV1 ovarian, in the assay with UACC-62 melanoma, in the assay on MALME-3M melanoma, in the assay on UO-31 renal and with SW-620 colon was over 100 µM each time. Besides, the TGI in the assay on SF-268 CNS was over 100 µM.

Regarding `CCN(CC)Cc1cc(Nc2ccnc3ccc4nn(C)nc4c23)ccc1O`, the TGI in the assay on 786-0 renal was 49.5 µM; in the assay with UACC-257 melanoma, 27.8 µM; with HT29 colon it was 20.9 µM; in the assay on CAKI-1 renal it was over 100 µM; with HCC-2998 colon it was 26.4 µM; in the assay on A549 NSCLC, 80 µM. Moreover, the TGI in the assay on NCI-H23 lung was found to be 29.9 µM; in the assay on IGROV1 ovarian it was 99 µM; in the assay with UACC-62 melanoma, 27.4 µM; in the assay on MALME-3M melanoma, 31.3 µM; in the assay with UO-31 renal, 54 µM; in the assay on SW-620 colon it was 28.2 µM. This compound gave a TGI in the assay on SF-268 CNS of 36.4 µM.

`O=C(O)c1ccc([C@@H]2C(=O)N(O)[C@@H]3C=CC[C@@H]32)cc1`: the TGI with 786-0 renal, in the assay with UACC-257 melanoma, in the assay with HT29 colon, in the assay on CAKI-1 renal, with HCC-2998 colon and with A549 NSCLC was over 100 µM in each case. Moreover, the TGI with NCI-H23 lung, in the assay on IGROV1 ovarian, in the assay on UACC-62 melanoma, in the assay with MALME-3M melanoma, in the assay on UO-31 renal and with SW-620 colon was over 100 µM each time. This compound showed a total growth inhibition concentration (TGI) with SF-268 CNS of over 100 µM.
